Broadly, the melting point is the temperature of the solid-liquid transition.

For 51 compounds, melting point and pest or weed control results are on record in US8916579B2, “5-fluoropyrimidinone derivatives” (Dow AgroSciences, LLC., priority 2009, dated 2014).

Like-named read-outs stand apart in the source and are kept apart here.

Series [1] concerns Mycosphaerella graminicola; anamorph: Septoria tritici; Bayer code SEPTTR. As to the kind of experiment: Fungicidal activity: leaf blotch of wheat, greenhouse wheat plants (variety Yuma), percent disease control. It is filed as in vivo. As to conditions: Zymoseptoria tritici. As for the experimental part:
Evaluation of Fungicidal Activity: Leaf Blotch of Wheat (Mycosphaerella graminicola; anamorph: Septoria tritici; Bayer code SEPTTR)
Wheat plants (variety Yuma) were grown from seed in a greenhouse in 50% mineral soil/50% soil-less Metro mix until the first leaf was fully emerged, with 7-10 seedlings per pot. These plants were inoculated with an aqueous spore suspension of Septoria tritici either prior to or after fungicide treatments. After inoculation the plants were kept in 100% relative humidity (one day in a dark dew chamber followed by two to three days in a lighted dew chamber) to permit spores to germinate and infect the leaf. The plants were then transferred to a greenhouse for disease to develop.
The effectiveness of the test compounds in controlling disease was determined by assessing the severity of disease on treated plants, then converting the severity to percent control based on the level of disease on untreated, inoculated plants. • In each case of Table II the rating scale is as follows: […]

[2] abbreviates: 24 h, One-Day Protectant (1DP), 100 ppm, wheat plants, read-out: SEPTTR 100 PPM 1DP (% Disease Control rating).
[3] abbreviates: 72 h, Three-Day Curative (3DC), 100 ppm, wheat plants, read-out: SEPTTR 100 PPM 3DC (% Disease Control rating).
Setting [4] is: 24 h, read-out: SEPTTR 100 PPM 1DP (% Disease Control rating).
Where [5] appears, read: 72 h, read-out: SEPTTR 100 PPM 3DC (% Disease Control rating).

Turning to `COc1ccc(/C=C/n2cc(F)c(NCc3ccccc3F)nc2=O)cc1` [Compound 72], the melting point lay within 196.8 to 198.5 °C. `CN(C)/C=N/c1nc(=O)n(-c2ccc3ccccc3c2)cc1F` [Compound 64] returned a melting point of 222.4 to 224.4 °C. Same read-out and setting: the result for `COc1ccc(-n2cc(F)c(N)nc2=O)cc1` [Compound 44] reads 230 to 232 °C. For `Cc1ccc(Cn2cc(F)c(N)nc2=O)cc1` [Compound 25, 4-amino-5-fluoro-1-(4-methylbenzyl)-pyrimidin-2(1H)-one], the pest or weed control at 100 ppm in series [1] (setting [2]) and in series [1] (setting [3]) was 0 to 25% each time. With `Cc1ccc(NC(=O)Nc2nc(=O)n(Cc3cccnc3)cc2F)cc1` [Compound 90], the melting point was in the range of 178.2 to 180 °C. For the same compound, the pest or weed control at 100 ppm in series [1] (setting [2]) lay in the range of 0 to 25%. In addition, in series [1] (setting [3]), the pest or weed control at 100 ppm fell in the range of 0 to 25%. Consider `Cc1ccc(Cn2cc(F)c(N(C)Cc3ccccc3F)nc2=O)cc1` [Compound 38, 5-fluoro-4-((2-fluorobenzyl)(methyl)amino)-1-(4-methylbenzyl)pyrimidin-2(1H)-one], for which the pest or weed control at 100 ppm in series [1] (setting [2]) and in series [1] (setting [3]) was 0 to 25% each time. In turn, `Nc1nc(=O)n(-c2ccccc2)cc1F` [Compound 42] came in with a melting point of 233 to 235 °C. The compound `CCOCCn1cc(F)c(NC(=O)c2cccs2)nc1=O` [Compound 100] gave a melting point of 109 to 110.4 °C.

The compound `CCCC(=O)OCn1cc(F)c(N)nc1=O` [Compound 21] showed a melting point of 210 to 214 °C. The pest or weed control at 100 ppm in series [1] (setting [2]) was 76 to 100%. Moreover, in series [1] (setting [3]), the pest or weed control at 100 ppm fell in the range of 76 to 100%. For `CCNc1nc(=O)n(CCOCC)cc1F` [Compound 108], the melting point is 63 to 65 °C.

For `Nc1nc(=O)n(-c2ccc3c(c2)OCO3)cc1F` [Compound 47], the melting point is 275 to 279 °C. The pest or weed control at 100 ppm in series [1] (setting [2]) fell in the range of 26 to 50%. For the same compound, in series [1] (setting [3]), the pest or weed control at 100 ppm is 0 to 25%. `O=C(Nc1nc(=O)n(CC2CC2)cc1F)OCc1ccccc1` [Compound 81]: the melting point was in the range of 228 to 230 °C. In addition, in series [1] (setting [2]), the pest or weed control at 100 ppm is 26 to 50%. Besides, the pest or weed control at 100 ppm in series [1] (setting [3]) lay within 76 to 100%. In turn, `C=Cn1cc(F)c(N)nc1=O` [Compound 41] had a melting point of 213.5 to 214.4 °C. Further, the pest or weed control at 100 ppm in series [1] (setting [2]) was 76 to 100%. In series [1] (setting [3]), the pest or weed control at 100 ppm was 76 to 100%.

`O=C(Nc1nc(=O)n(CC2CCCO2)cc1F)c1ccccc1F` (stereo not drawn) [Compound 96] displayed a melting point of 119.8 to 121.9 °C. In addition, the pest or weed control at 100 ppm in series [1] (setting [2]) is 0 to 25%. Moreover, in series [1] (setting [3]), the pest or weed control at 100 ppm is 26 to 50%. In the case of `O=c1nc(NCN2CCOCC2)c(F)cn1CN1CCOCC1` [Compound 1, 5-fluoro-1-morpholin-4-ylmethyl-4-[(morpholin-4-ylmethyl)amino]-1H-pyrimidin-2-one], the pest or weed control at 100 ppm in series [1] (setting [4]) and in series [1] (setting [5]) was 76 to 100% in each case. For `CN(C)/C=N/c1nc(=O)n(COC(=O)C(C)(C)C)cc1F` [Compound 12, 2,2-dimethylpropionic acid 4-(dimethylamino-methyleneamino)-5-fluoro-2-oxo-2H-pyrimidin-1-ylmethyl ester], the pest or weed control at 100 ppm in series [1] (setting [2]) and in series [1] (setting [3]) was 76 to 100% each time. Compound `CCOC(=O)Nc1nc(=O)n(CSC)cc1F` [Compound 84] displayed a melting point of 137.1 to 138.8 °C.

As for `CCOCn1cc(F)c(NCc2ccccc2F)nc1=O` [Compound 37, 1-(ethoxymethyl)-5-fluoro-4-(2-fluorobenzylamino)-pyrimidin-2(1H)-one], the pest or weed control at 100 ppm in series [1] (setting [2]) and in series [1] (setting [3]) was 0 to 25% in each case. Consider `O=c1nc(NCOCc2ccccc2)c(F)cn1COCc1ccccc1` [Compound 15, 1-(benzyloxymethyl)-4-(benzyloxymethylamino)-5-fluoropyrimidin-2(1H)-one], for which the pest or weed control at 100 ppm in series [1] (setting [2]) and in series [1] (setting [3]) was 0 to 25% each time. With `CN(c1nc(=O)n(C)cc1F)S(=O)(=O)Cc1ccccc1` [Compound 9, N-(5-fluoro-1-methyl-2-oxo-1,2-dihydropyrimidin-4-yl)-N-methyl-C-phenylmethanesulfonamide], the pest or weed control at 100 ppm in series [1] (setting [2]) was 26 to 50%; in series [1] (setting [3]), 0 to 25%. On to `CC(C)COC(=O)N(C)c1nc(=O)n(C)cc1F` [Compound 11, (5-fluoro-1-methyl-2-oxo-1,2-dihydropyrimidin-4-yl)methylcarbamic acid isobutyl ester], for which the pest or weed control at 100 ppm was 26 to 50% in series [1] (setting [4]) and 0 to 25% in series [1] (setting [5]).

With `CSCn1cc(F)c(N)nc1=O` [Compound 79], the melting point was in the range of 128.5 to 130.6 °C.

`C=C(c1ccccc1)n1cc(F)c(/N=C/N(C)C)nc1=O` [Compound 61] yielded a melting point of 147 to 147.9 °C. On the same count and under the same terms, the result for `Nc1nc(=O)n(/C=C/c2ccccc2)cc1F` [Compound 48] reads 256 to 258 °C. Compound `O=c1nc(NCc2ccccc2F)c(F)cn1-c1ccc2ccccc2c1` [Compound 73] came in with a melting point of 207.5 to 209 °C.

Regarding `CC(C)Cn1cc(F)c(NCc2ccccc2F)nc1=O` [Compound 105, 5-fluoro-4-(2-fluorobenzylamino)-1-isobutyl-pyrimidin-2(1H)-one], the pest or weed control at 100 ppm in series [1] (setting [4]) is 0 to 25%; in series [1] (setting [5]), 26 to 50%.

Consider `CC(=O)Nc1nc(=O)n(CC2CCCO2)cc1F` (stereo not drawn) [Compound 95], for which the pest or weed control at 100 ppm in series [1] (setting [2]) fell in the range of 0 to 25%; in series [1] (setting [3]) it was 51 to 75%. `CCC/C=C/n1cc(F)c(N)nc1=O` [Compound 53] had a melting point of 152.8 to 153.4 °C. Regarding `CCOC(=O)Nc1nc(=O)n(Cc2cccnc2)cc1F` [Compound 83], the pest or weed control at 100 ppm in series [1] (setting [2]) and in series [1] (setting [3]) was 26 to 50% in each case. In turn, `CN(C)/C=N/c1nc(=O)n(C2=CCCCC2)cc1F` [Compound 60] displayed a melting point of 173.2 to 174.4 °C. As to `COc1ccc(/C=C/n2cc(F)c(/N=C/N(C)C)nc2=O)cc1` [Compound 63], the melting point is 264.3 to 265.3 °C. `CCOCCn1cc(F)c(N)nc1=O` [Compound 78] registered a melting point of 207.3 to 208.2 °C.

`C=C(c1ccccc1)n1cc(F)c(NCc2ccccc2F)nc1=O` [Compound 70] returned a melting point of 138.9 to 140.2 °C. Same read-out and setting: the result for `C=C(c1ccccc1)n1cc(F)c(N)nc1=O` [Compound 52] reads 211.2 to 213 °C; that for `CCOCCn1cc(F)c(NC(=O)c2ccccc2F)nc1=O` [Compound 101], 116.8 to 117.8 °C. For the compound `CN(C)/C=N/c1nc(=O)n(Cc2ccc(Cl)cc2Cl)cc1F` [Compound 5], the pest or weed control at 100 ppm in series [1] (setting [2]) and in series [1] (setting [3]) was 0 to 25% in each case. `COc1ccc(/C=C/n2cc(F)c(N)nc2=O)cc1` [Compound 54] showed a melting point of 263.3 to 265.1 °C.

Consider `Nc1nc(=O)n(/C=C/Cc2ccccc2)cc1F` [Compound 49], for which the melting point fell in the range of 212 to 214 °C. The compound `CS(=O)(=O)c1ccc(-n2cc(F)c(N)nc2=O)cc1` [Compound 50] displayed a melting point of 244.4 to 245.7 °C. The compound `O=c1nc(NCc2ccccc2F)c(F)cn1C1=CCCCC1` [Compound 69] displayed a melting point of 151.5 to 152.6 °C.

Compound `CCC/C=C/n1cc(F)c(/N=C/N(C)C)nc1=O` [Compound 62] showed a melting point of 144.7 to 146.3 °C.

For `Cc1ccc(C(=O)Nc2nc(=O)n(C)cc2F)cc1` [Compound 8, N-(5-fluoro-1-methyl-2-oxo-1,2-dihydro-pyrimidin-4-yl)-4-methyl-benzamide], the pest or weed control at 100 ppm lay in the range of 26 to 50% in series [1] (setting [2]) and 0 to 25% in series [1] (setting [3]).

On to `CN(C)/C=N/c1nc(=O)n(Cc2ccc(F)cc2)cc1F` [Compound 4, N′-[5-fluoro-1-(4-fluorobenzyl)-2-oxo-1,2-dihydro-pyrimidin-4-yl]-N,N-dimethylformamidine], for which the results for the pest or weed control at 100 ppm in series [1] (setting [2]) and in series [1] (setting [3]) were 26 to 50% and 0 to 25%, respectively. `Nc1nc(=O)n(-c2ccc3ccccc3c2)cc1F` [Compound 55] had a melting point of 272.8 to 274.2 °C.

With `CCNc1nc(=O)n(CC(C)C)cc1F` [Compound 107], the values for the pest or weed control at 100 ppm in series [1] (setting [2]) and in series [1] (setting [3]) were 0 to 25% and 26 to 50%, respectively. `Nc1nc(=O)n(C2=CCCCC2)cc1F` [Compound 51] registered a melting point of 190.6 to 192.7 °C. In the case of `Nc1nc(=O)n(Cc2cccnc2)cc1F` [Compound 75], the pest or weed control at 100 ppm lay in the range of 26 to 50% in series [1] (setting [2]) and 76 to 100% in series [1] (setting [3]). `CS(=O)(=O)c1ccc(-n2cc(F)c(NCc3ccccc3F)nc2=O)cc1` [Compound 68] had a melting point of 231.6 to 233.1 °C.

On to `Nc1nc(=O)n(-c2ccc(Cl)cc2)cc1F` [Compound 45], for which the melting point was 255 to 257 °C. With `Nc1nc(=O)n(CC2CC2)cc1F` [Compound 74, 4-amino-1-(cyclopropylmethyl)-5-fluoropyrimidin-2(1H)-one], the pest or weed control at 100 ppm in series [1] (setting [2]) lay in the range of 76 to 100%; in series [1] (setting [3]), 51 to 75%. On to `CN1CCN(CNc2nc(=O)n(CN3CCN(C)CC3)cc2F)CC1` [Compound 2, 5-fluoro-1-(4-methylpiperazin-1-ylmethyl)-4-[(4-methylpiperazin-1-ylmethyl)-amino]-1H-pyrimidin-2-one], for which the pest or weed control at 100 ppm in series [1] (setting [4]) and in series [1] (setting [5]) was 76 to 100% each time.
